For assay [1], the system named is Jurkat T cells. In words: Antiproliferative screening at 10 μM, MTS assay. It counts as cell-based, human. Conditions: Homo sapiens; Jurkat T cells, 10 μM, 72 h after treatment, MTS; mean of three independent experiments; read-out: Cell viability (%). The essentials:
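Jurkat cells at 2 × 10^3 per well were grown 24 h, then exposed to compound for 72 h. Viability came from MTS absorbance at 490 nm relative to vehicle-treated wells. GI50 was derived from sigmoidal concentration-response curves.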
A general note: Formazan colour is commonly taken as a measure of viable cells.

Assay [2] deals with Jurkat T cells. In words: Inhibition of Jurkat T cell growth (GI50), MTS assay. Format: cell-based. As to conditions: Homo sapiens. As for the experimental part:
These compounds were selected for further testing to estimate their 50% growth inhibition (GI50) value. Standard antileukemic drugs mercaptopurine, methotrexate and cytarabine were chosen as positive controls.
An MTS (3-(4,5-dimethylthiazol-2-yl)-5-(3-carboxymethoxyphenyl)-2-(4-sulfophenyl)-2H-tetrazolium inner salt) assay[20] was used to assess the leukemic cell viability. Jurkat T cells (human leukemic T cell, clone E6-1) from American Type Culture Collection (ATCC) were cultured in RPMI-1640 medium (Nacalai Tesque, Japan) supplemented with 10% v/v fetal bovine serum (FBS) (Biosera, France). The cells were maintained at 37 °C in a humidified 5% CO2 incubator (Thermo Fisher, USA). A total of 2 × 10^3 cells per 100 μL cell culture media were seeded into each well of a 96-well plate and incubated for 24 h. Then, tested compounds or reference drugs [6-mercaptopurine (Merck Millipore, Germany), methotrexate (Merck Millipore, Germany) and cytarabine (Merck Millipore, Germany)] were added, followed by incubation for 72 h. After that, a mixture of MTS (Sigma Aldrich, USA) and phenazine methosulfate (PMS) (Nacalai Tesque, Japan) were added to each well, followed by another incubation for 1 h to 4 h at 37 °C. The absorbance in each well was measured at 490 nm using a microplate reader (Tecan NanoQuant Infinite M200 Pro, Austria). The percentage of cell viability was estimated by comparing absorbance in wells with the treated and untreated (vehicle control) cells using the following formula: ODtreated/ODuntreated × 100%. All experiments were performed in triplicate and repeated in three independent experiments. The GI50 values were calculated using sigmoidal concentration-response curves generated by the GraphPad Prism 8 program.[21]

The subject of assay [3] is Jurkat T cells. In words: AO/PI double fluorescence staining, cell morphology study. It counts as cell-based, human. Conditions: treatment at GI50 concentration, 24 h, 48 h, 72 h. As for the experimental part: The GI50 value for this compound was selected as the treatment concentration. […] Moreover, some Jurkat T cells underwent late stages of apoptosis as shown by the reddish-orange stain (Fig. 4C). Similar events also occurred 48 h and 72 h after the treatment but with a lower number of viable cells (Fig. 4D and E).
Fluorescence microscopy was applied to portray apoptotic and necrotic changes in Jurkat T cells using AO/PI fluorescence staining.[23] The Jurkat T cells were cultured as described above. A total of 5 × 10^5 cells (based on the doubling time for the cell line) per 1 mL cell culture media were seeded into each well of a 6-well plate (Biologix, USA) and incubated for 24 h. […] The fluorescence dye containing AO (10 μg mL^−1, 16 μL) and PI (10 μg mL^−1, 13 μL) was prepared immediately prior to use. The treated cells, positive and negative controls containing dyes were examined immediately under an inverted UV-fluorescent microscope (Nikon Ti2-E, Japan) to prevent fluorescence dyes from fading. The images of viable cells and non-viable cells after treatment were taken by Nikon Ti2-E software. The observations were repeated in three independent experiments.

Where [4] appears, read: concentration required to inhibit Jurkat T cell growth by 50%, 72 h, MTS, mean of three independent experiments, read-out: GI50 ± SEM.

“Also recorded” adds a separate entry of the source. Where two headings read alike, the source gives them in different places.

As a reminder, the viability is a per cent measure of how many cells are alive, often set against a control. In the case of `Nc1nc(-c2cccc(F)c2)nc(N2CCc3ccccc3C2)n1` [Compound 9{6,2}, 6-(3-Fluorophenyl)-4-(3,4-dihydroisoquinolin-2(1H)-yl)-1,3,5-triazine-2-amine], in assay [1], the viability at 10 µM was determined as 1%. Moreover, the GI50 in assay [2] (GI50 against Jurkat T cells converted to negative logarithmic scale, read-out: Experimental pGI50 (converted)) is 1020 nM; in assay [2] (setting [4]), 1020 ± 300 nM. In addition, the “Jurkat T cell morphology, type of cell death (AO/PI staining)” value in assay [3] was “necrotic type of cell death; also recorded: probably involved aponecrosis; also recorded: triggered the aponecrosis”.

Regarding `CN(Cc1cnc2nc(N)nc(N)c2n1)c1ccc(C(=O)N[C@@H](CCC(=O)O)C(=O)O)cc1` [Methotrexate, methotrexate, reference compound], the GI50 in assay [2] (setting [4]) was found to be 370 ± 30 nM. Further, the “Jurkat T cell morphology, type of cell death (AO/PI staining)” value in assay [3] was “induced the late apoptotic morphological changes”.

Source of the values: paper PMC10925993, “6-Aryl-4-cycloamino-1,3,5-triazine-2-amines: synthesis, antileukemic activity, and 3D-QSAR modelling” (RSC Advances, 2024).
